Results: PMC5770610, “Structure and function of urea amidolyase” (Bioscience Reports, 2018)

Biological target: T1, KlAH (Kluyveromyces lactis, UniProt Q6CP22)
T1 construct: gene KLLA0_E08119g; isolated allophanate hydrolase (AH) part, N and C domains, N-terminal part of KlUA; recombinant; homodimer
Test: glutamate dehydrogenase-coupled NADH assay of ammonium
Assay type: biochemical
Conditions: AH activity; 6 mM MgCl2, 20 mM KCl, pH 8.0; substrate as potassium salt; read-out: Km^1
Description: glutamate dehydrogenase-coupled NADH assay of ammonium on KlAH

T1 sequence (Q6CP22 entry or part of it): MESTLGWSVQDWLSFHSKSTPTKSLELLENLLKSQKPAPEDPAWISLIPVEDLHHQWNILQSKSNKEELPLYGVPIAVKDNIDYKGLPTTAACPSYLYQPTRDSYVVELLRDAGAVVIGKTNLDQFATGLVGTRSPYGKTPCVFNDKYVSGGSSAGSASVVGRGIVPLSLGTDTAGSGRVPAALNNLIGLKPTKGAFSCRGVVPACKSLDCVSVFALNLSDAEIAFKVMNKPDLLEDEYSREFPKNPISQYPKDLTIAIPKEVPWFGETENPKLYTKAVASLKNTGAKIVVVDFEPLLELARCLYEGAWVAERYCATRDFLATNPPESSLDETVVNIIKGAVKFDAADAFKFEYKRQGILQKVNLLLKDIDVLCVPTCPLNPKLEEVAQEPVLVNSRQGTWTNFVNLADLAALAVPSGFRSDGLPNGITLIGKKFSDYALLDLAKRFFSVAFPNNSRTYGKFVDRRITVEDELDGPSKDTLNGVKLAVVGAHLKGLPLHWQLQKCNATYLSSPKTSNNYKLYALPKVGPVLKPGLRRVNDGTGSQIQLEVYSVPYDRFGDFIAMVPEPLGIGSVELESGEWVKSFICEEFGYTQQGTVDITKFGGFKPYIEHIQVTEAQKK

NC(=O)NC(=O)O [allophanate]
Km: 432 ± 60 µM
